Assay results: publication PMC10590383, “Repurposing conformational changes in ANL superfamily enzymes to rapidly generate biosensors for organic and amino acids” (Nature Communications, 2023)

Tests used:
GECFINDER-Phe3.1 = molecular target: T1, GECFINDER-Phe3.1 (Aneurinibacillus migulanus, UniProt P0C061, F234I); assay: Fluorescence dose-response of purified affinity-lowered […]-Phe3 mutants with phenylalanine, 100 mM Tris pH 7.5, room temperature, 1 mM ATP, 2.5 mM MgCl2.; format: biochemical
T1 construct: gene grsA
T1 sequence (P0C061 1-617 F234I): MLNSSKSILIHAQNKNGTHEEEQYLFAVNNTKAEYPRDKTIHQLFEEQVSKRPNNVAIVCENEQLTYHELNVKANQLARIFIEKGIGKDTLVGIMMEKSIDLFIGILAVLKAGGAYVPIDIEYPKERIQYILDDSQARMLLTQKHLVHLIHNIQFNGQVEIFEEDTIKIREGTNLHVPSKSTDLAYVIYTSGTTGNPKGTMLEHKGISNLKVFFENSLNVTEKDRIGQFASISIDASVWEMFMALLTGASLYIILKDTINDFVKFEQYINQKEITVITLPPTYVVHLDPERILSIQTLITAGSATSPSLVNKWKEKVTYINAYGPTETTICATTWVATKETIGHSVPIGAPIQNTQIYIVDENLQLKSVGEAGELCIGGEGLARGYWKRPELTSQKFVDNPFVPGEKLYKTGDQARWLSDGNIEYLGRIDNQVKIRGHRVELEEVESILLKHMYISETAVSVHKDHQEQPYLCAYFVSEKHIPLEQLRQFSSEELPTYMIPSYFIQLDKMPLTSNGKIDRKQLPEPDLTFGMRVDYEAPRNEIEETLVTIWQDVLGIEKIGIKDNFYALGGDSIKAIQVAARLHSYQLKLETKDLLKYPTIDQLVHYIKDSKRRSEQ
Text: (§1) Generally, industrial amino acid-producing strains produce phenylalanine at the grams per liter level, which greatly exceeds the dynamic range of […]-Phe3. Thus, we had to re-engineer the affinity of […]-Phe3 without affecting its ligand specificity, for phenylalanine to enable the screening of industrial phenylalanine-producing strains First, we performed virtual alanine scanning on the amino acid residues near the substrate pocket of […]-Phe3 using Discovery Studio 2019. […] Subsequently, we performed virtual saturation mutations on the F234 site (Supplementary Fig. 8b) and selected F234I, which has a medium mutation energy value ranking, for experimental verification. […] To further reduce the affinity of the F234I mutant ([…]-Phe3.1) for phenylalanine, a site-saturation library of A301 based on […]-Phe3.1 was created and screened. […] The substrate specificity and thermal stability of […]-Phe3.2 were evaluated.
(§2) Fig. 5 […] applies for FADS sorting. a Dose–response curves of purified […]-Phe3, 3.1 and 3.2 with increasing concentrations of phenylalanine. b Phenylalanine biosynthesis pathway in C. glutamicum. Dotted and dashed lines represented feedback inhibition and repression, respectively. Two target genes were highlighted in red. […] RBS strength was determined using a GFP reporter system. Scale bar represented GFP fluorescence normalized with OD600 nm. […]

GECFINDER-Phe3.2 = molecular target: T2, GECFINDER-Phe3.2 (Aneurinibacillus migulanus, UniProt P0C061, A301E/F234I); assay: as above; format: biochemical
T2 construct: gene grsA
T2 sequence (P0C061 1-617 F234I/A301E): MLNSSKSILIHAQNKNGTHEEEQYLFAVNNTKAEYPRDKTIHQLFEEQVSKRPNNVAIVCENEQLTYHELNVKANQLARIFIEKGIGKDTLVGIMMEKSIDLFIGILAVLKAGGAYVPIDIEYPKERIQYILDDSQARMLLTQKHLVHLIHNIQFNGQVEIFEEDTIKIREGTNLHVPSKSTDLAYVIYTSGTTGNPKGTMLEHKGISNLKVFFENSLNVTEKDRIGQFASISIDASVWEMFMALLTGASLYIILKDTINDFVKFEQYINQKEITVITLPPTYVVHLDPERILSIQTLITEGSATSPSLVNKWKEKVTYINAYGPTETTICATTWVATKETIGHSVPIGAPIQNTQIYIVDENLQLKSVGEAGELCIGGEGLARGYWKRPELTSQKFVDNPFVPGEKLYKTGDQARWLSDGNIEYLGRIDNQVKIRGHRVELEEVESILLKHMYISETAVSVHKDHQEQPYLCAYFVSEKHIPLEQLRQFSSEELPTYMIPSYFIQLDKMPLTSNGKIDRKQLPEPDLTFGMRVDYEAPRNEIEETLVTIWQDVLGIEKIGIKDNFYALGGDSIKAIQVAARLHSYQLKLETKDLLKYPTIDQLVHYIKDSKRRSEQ
Text: as §1, §2

Compound N[C@@H](Cc1ccccc1)C(=O)O [Phe, phenylalanine] has an EC50 (GECFINDER-Phe3.1) of 7.51 µM and an EC50 (GECFINDER-Phe3.2) of 67.6 µM.
